# Measurements from US7229825B2, “Double-transfected cell line useful for the identification of transport inhibitors” (Deutches Krebsforschungszentrum Stiftung des Offentlichen …, priority 2001, dated 2007).
# Like-named read-outs stand apart in the source and are kept apart here.
# T1: human OATP8 (MDCK-OATP8 cells) (Homo sapiens, UniProt Q9NPD5)
# T1 sequence (Q9NPD5 1-702): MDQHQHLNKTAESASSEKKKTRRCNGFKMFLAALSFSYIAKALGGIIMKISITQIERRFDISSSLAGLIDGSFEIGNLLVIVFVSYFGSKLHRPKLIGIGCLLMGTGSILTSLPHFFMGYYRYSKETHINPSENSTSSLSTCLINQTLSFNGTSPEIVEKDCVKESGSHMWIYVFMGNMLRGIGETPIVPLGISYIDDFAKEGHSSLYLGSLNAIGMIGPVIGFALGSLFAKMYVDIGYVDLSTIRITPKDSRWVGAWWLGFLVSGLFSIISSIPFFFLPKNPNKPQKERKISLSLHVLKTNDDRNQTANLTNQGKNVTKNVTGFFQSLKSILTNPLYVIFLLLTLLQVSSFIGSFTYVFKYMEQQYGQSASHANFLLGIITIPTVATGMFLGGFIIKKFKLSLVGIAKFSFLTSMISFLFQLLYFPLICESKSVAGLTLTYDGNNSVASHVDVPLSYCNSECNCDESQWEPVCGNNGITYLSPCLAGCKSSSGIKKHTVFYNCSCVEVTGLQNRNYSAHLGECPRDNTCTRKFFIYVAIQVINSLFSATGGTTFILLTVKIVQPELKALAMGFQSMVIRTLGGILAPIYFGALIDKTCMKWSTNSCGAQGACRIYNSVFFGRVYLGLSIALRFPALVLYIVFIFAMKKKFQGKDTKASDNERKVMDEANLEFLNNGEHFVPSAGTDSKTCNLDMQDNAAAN
# B1: human MRP2 (Homo sapiens) (protein)
# chain: MLEKFCNSTFWNSSFLDSPEADLPLCFEQTVLVWIPLGYLWLLAPWQLLHVYKSRTKRSSTTKLYLAKQVFVGFLLILAAIELALVLTEDSGQATVPAVRYTNPSLYLGTWLLVLLIQYSRQWCVQKNSWFLSLFWILSILCGTFQFQTLIRTLLQGDNSNLAYSCLFFISYGFQILILIFSAFSENNESSNNPSSIASFLSSITYSWYDSIILKGYKRPLTLEDVWEVDEEMKTKTLVSKFETHMKRELQKARRALQRRQEKSSQQNSGARLPGLNKNQSQSQDALVLEDVEKKKKKSGTKKDVPKSWLMKALFKTFYMVLLKSFLLKLVNDIFTFVSPQLLKLLISFASDRDTYLWIGYLCAILLFTAALIQSFCLQCYFQLCFKLGVKVRTAIMASVYKKALTLSNLARKEYTVGETVNLMSVDAQKLMDVTNFMHMLWSSVLQIVLSIFFLWRELGPSVLAGVGVMVLVIPINAILSTKSKTIQVKNMKNKDKRLKIMNEILSGIKILKYFAWEPSFRDQVQNLRKKELKNLLAFSQLQCVVIFVFQLTPVLVSVVTFSVYVLVDSNNILDAQKAFTSITLFNILRFPLSMLPMMISSMLQASVSTERLEKYLGGDDLDTSAIRHDCNFDKAMQFSEASFTWEHDSEATVRDVNLDIMAGQLVAVIGPVGSGKSSLISAMLGEMENVHGHITIKGTTAYVPQQSWIQNGTIKDNILFGTEFNEKRYQQVLEACALLPDLEMLPGGDLAEIGEKGINLSGGQKQRISLARATYQNLDIYLLDDPLSAVDAHVGKHIFNKVLGPNGLLKGKTRLLVTHSMHFLPQVDEIVVLGNGTIVEKGSYSALLAKKGEFAKNLKTFLRHTGPEEEATVHDGSEEEDDDYGLISSVEEIPEDAASITMRRENSFRRTLSRSSRSNGRHLKSLRNSLKTRNVNSLKEDEELVKGQKLIKKEFIETGKVKFSIYLEYLQAIGLFSIFFIILAFVMNSVAFIGSNLWLSAWTSDSKIFNSTDYPASQRDMRVGVYGALGLAQGIFVFIAHFWSAFGFVHASNILHKQLLNNILRAPMRFFDTTPTGRIVNRFAGDISTVDDTLPQSLRSWITCFLGIISTLVMICMATPVFTIIVIPLGIIYVSVQMFYVSTSRQLRRLDSVTRSPIYSHFSETVSGLPVIRAFEHQQRFLKHNEVRIDTNQKCVFSWITSNRWLAIRLELVGNLTVFFSALMMVIYRDTLSGDTVGFVLSNALNITQTLNWLVRMTSEIETNIVAVERITEYTKVENEAPWVTDKRPPPDWPSKGKIQFNNYQVRYRPELDLVLRGITCDIGSMEKIGVVGRTGAGKSSLTNCLFRILEAAGGQIIIDGVDIASIGLHDLREKLTIIPQDPILFSGSLRMNLDPFNNYSDEEIWKALELAHLKSFVASLQLGLSHEVTEAGGNLSIGQRQLLCLGRALLRKSKILVLDEATAAVDLETDNLIQTTIQNEFAHCTVITIAHRLHTIMDSDKVMVLDNGKIIECGSPEELLQIPGPFYFMAKEAGIENVNSTKF
# notes: expressed in transfected cells
# Key:
# [1] = system: human OATP8 and MRP2 (MDCK-MRP2/OATP8 cells); assay: Inhibition of transcellular [3H]BSP transport in MDCK-MRP2/OATP8 cells; format: cell-based; settings: 1 μM [3H]BSP, 30 min, 37° C.
# Experimental: (§1) For transport assays MDCKII cells were grown on Transwell membrane inserts (24 mm diameter, 0.4 μm pore size, Corning Costar) at confluency for 3 days and induced with 10 mM sodium butyrate for 24 h. Cells were first washed with transport buffer (142 mM NaCl, 5 mM KCl, 1 mM KH2PO4, 1.2 mM MgSO4, 1.5 mM CaCl2, 5 mM glucose, and 12.5 mM HEPES, pH 7.3), subsequently, ^3H-labeled substrates were added in transport buffer either to the apical compartments (1 ml) or to the basolateral compartments (1.5 ml). After the time periods indicated, the radioactivity in the opposite compartments was measured. The intracellular accumulation of the radioactivity was determined by lysing the cells with 2 ml 0.2% SDS in water and measuring the radioactivity in cell lysates.
# (§2) For inhibition studies the inhibitors were added simultaneously with [^3H]BSP into the basolateral compartments, with the exception of 1-chloro-2,4-dinitrobenzene (CDNB). In this case, MDCKII cells grown on Transwell membrane inserts were pre-incubated with CDNB in transport puffer in both apical and basolateral compartments for 20 min at room temperature. The transcellular transport was then started by replacing the buffer in the basolateral compartments by fresh buffer containing CDNB and [^3H]BSP.
# [2] = molecular target: T1, human OATP8 (MDCK-OATP8 cells); assay: Inhibition of [3H]BSP accumulation and transport in MDCK-OATP8 cells; settings: pre-incubation 20 min at room temperature, up to a concentration of 50 μM
# Experimental: as §1, §2
# [3] = system: human OATP8 and MRP2 (MDCK-MRP2/OATP8 cells); assay: Transcellular transport of organic anions across MDCK-MRP2/OATP8 cells on Transwell membrane inserts; settings: substrate in basolateral compartment, 37° C., apical compartment measured; MDCK-MRP2/OATP8 compared with MDCK-OATP8, MDCK-Co (and MDCK-MRP2) cells
# Experimental: (§3) For transport assays MDCKII cells were grown on Transwell membrane inserts (24 mm diameter, 0.4 μm pore size, Corning Costar) at confluency for 3 days and induced with 10 mM sodium butyrate for 24 h. […] After the time periods indicated, the radioactivity in the opposite compartments was measured. The intracellular accumulation of the radioactivity was determined by lysing the cells with 2 ml 0.2% SDS in water and measuring the radioactivity in cell lysates.
# (§4) To study the transcellular transport of Fluo-3, cells were incubated with 2 μM Fluo-3 in the basolateral compartments at 37° C. for 30 min.
# (§5) To study the transcellular transport of rifampicin, cells were incubated with 50 μM rifampicin in the basolateral compartments at 37° C. for 30 min. To determine the concentration of rifampicin in the apical compartments its absorption at 475 nm was measured with a spectrophotometer (Ultrospec III, Amersham-Pharmacia, Freiburg, Germany). A calibration curve for the calculation of the concentrations of rifampicin was determined in the concentration range between 1 and 50 μM.
# [4] = system: human OATP8 and MRP2 (MDCK-MRP2/OATP8 cells)
# Experimental: as §3, §4, §5
# human MRP2 = human MRP2 (Homo sapiens, UniProt Q92887); assay: Inhibition of [3H]LTC4 transport into HEK-MRP2 membrane vesicles; format: biochemical; settings: inhibitor at 50 μM
# MDCKII cell lines = assay: Transcellular leakage of [14C]inulin carboxylic acid across MDCKII cell monolayers; format: cell-based, canine; settings: 50 μM basolateral, 30 min, all four MDCKII cell lines
# Experimental: The transcellular leakage was determined by incubating cells with 50 μM [^14C]inulin carboxylic acid in the basolateral compartments for 30 min and measuring the radioactivity in the apical compartments. For all four MDCKII cell lines used in this work the transcellular leakage was lower than 1%.
# [5] = substrate: O=C1OC(c2ccc(O)c(S(=O)(=O)O)c2)(c2ccc(O)c(S(=O)(=O)O)c2)c2c(Br)c(Br)c(Br)c(Br)c21; assay: ATP-dependent transport of [3H]BSP into inside-out membrane vesicles from HEK-MRP2 cells; format: biochemical, human; settings: other: BSP concentrations between 1 and 10 μM; pH 7.4; 37.0 °C
# Experimental: Vesicle Transport Studies. Transport of [^3H]BSP into membrane vesicles was measured by the rapid filtration method (Keppler et al. 1998). Briefly, membrane vesicles (30 μg protein) were incubated in the presence of 4 mM ATP, 10 mM creatine phosphate, 100 μg/ml creatine kinase, and [^3H]BSP in an incubation buffer (250 mM sucrose, 10 mM Tris/HCl, pH 7.4) in a final volume of 55 μl at 37° C. Aliquots (15 μl) were taken at the indicated time points, diluted in 1 ml ice-cold incubation buffer, and immediately filtered through presoaked nitrocellulose membrane (0.2 μm pore size, Schleicher & Schüll, Dassel, Germany). Filters were rinsed twice with 5 ml of incubation buffer, dissolved in liquid scintillation fluid, and counted for radioactivity. In control experiments, ATP was replaced by an equal concentration of 5′-AMP. ATP-dependent transport was calculated by subtracting values obtained in the presence of 5′-AMP from those obtained in the presence of ATP.
molecule,measurement,setting,value
"O=[N+]([O-])c1ccc(Cl)c([N+](=O)[O-])c1 [CDNB, 1-chloro-2,4-dinitrobenzene]",effect on intracellular accumulation of [3H]BSP in MDCK-MRP2/OATP8 cells,[1]; different concentrations,enhanced
same,effect on transcellular transport of [3H]BSP in MDCK-MRP2/OATP8 cells,[1]; different concentrations,markedly inhibited
same,effect on intracellular accumulation of [3H]BSP in MDCK-OATP8 cells,[2],not inhibited
same,effect on transcellular transport of [3H]BSP in MDCK-OATP8 cells,[2],not inhibited
"C[C@]12CC[C@@H]3c4ccc(O)cc4CC[C@H]3[C@@H]1CC[C@@H]2O[C@@H]1O[C@H](C(=O)O)[C@@H](O)[C@H](O)[C@H]1O [E217bG, 17b-glucuronosyl estradiol]",transcellular transport (basolateral to apical),[3],much higher velocities
"Cc1ccc(N(CC(=O)O)CC(=O)O)c(OCCOc2cc(-c3c4cc(Cl)c(=O)cc-4oc4cc(O)c(Cl)cc34)ccc2N(CC(=O)O)CC(=O)O)c1.N.N.N.N.N [Fluo-3, 1-[2-amino-5-(2,7-dichloro-6-hydroxy-3-oxo-3H-xanthen-9-yl)]-2-(2′-amino-5′-methyl-phenoxyl)-ethane-N,N,N′,N′-tetraacetic acid penta-ammonium salt]",transcellular transport (basolateral to apical),[4],higher transport rate
"CCCCC/C=C\C\C=C/C=C/C=C/[C@@H](SC[C@H](NC(=O)CC[C@H](N)C(=O)O)C(=O)NCC(=O)O)[C@@H](O)CCCC(=O)O [LTC4, leukotriene C4]",transcellular transport (basolateral to apical),[4],much higher velocities
"C[C@H](CCC(=O)NCCS(=O)(=O)O)[C@H]1CC[C@H]2[C@@H]3[C@H](O)C[C@@H]4C[C@H](O)CC[C@]4(C)[C@H]3C[C@H](O)[C@]12C [[^3H]cholyl taurine, cholyl taurine]",transcellular transport (basolateral to apical),[3],no difference in transport rates
CO[C@H]1/C=C/O[C@@]2(C)Oc3c(C)c(O)c4c(O)c(c(/C=N/N5CCN(C)CC5)c(O)c4c3C2=O)NC(=O)/C(C)=C\C=C\[C@H](C)[C@H](O)[C@@H](C)[C@@H](O)[C@@H](C)[C@H](OC(C)=O)[C@@H]1C [rifampicin],intracellular accumulation of [3H]BSP in MDCK-MRP2/OATP8 cells,[1],about 50 % of control
same,[3H]LTC4 transport into HEK-MRP2 membrane vesicles,human MRP2,50 % of control
same,transcellular transport (basolateral to apical),[3],significantly higher transcellular transport
CO[C@H]1/C=C/O[C@@]2(C)Oc3c(C)c([O-])c4c(O)c(cc(O)c4c3C2=O)NC(=O)/C(C)=C\C=C\[C@H](C)[C@H](O)[C@@H](C)[C@@H](O)[C@@H](C)[C@H](OC(C)=O)[C@@H]1C.[Na+] [rifamycin SV],intracellular accumulation of [3H]BSP in MDCK-MRP2/OATP8 cells,[1],about 50 % of control
same,effect on transcellular transport of [3H]BSP in MDCK-MRP2/OATP8 cells,[1]; different concentrations,inhibited more strongly
same,[3H]LTC4 transport into HEK-MRP2 membrane vesicles,human MRP2,38 % of control
Inulin carboxylic acid [[^14C]Inulin carboxylic acid],transcellular leakage,MDCKII cell lines,lower than 1%
B1,Km,[5],12 µM
